Measured values as given in patent publication US8541617B2, “Cycloalkylphenyl substituted cyclic ketoenols” (Bayer Cropscience AG, priority 2006, dated 2013).

Legend:
[1] = test system: green peach aphid (Myzus persicae); assay: Example M: Myzus persicae test, activity increase by ammonium/phosphonium salts in combination with penetrants; type: in vivo; details: for Kill (%) after 6 d +AS 1000 ppm: + ammonium sulphate 1000 ppm; for Kill (%) after 6 d +RME 1000 ppm: + rapeseed oil methyl ester 1000 ppm; for Kill (%) after 6 d: no additive
Method: Activity Increase by Ammonia/Phosphonium Salts in Combination with Penetrants
Solvent: 7 parts by weight of dimethylformamide
Emulsifier: 2 parts by weight of alkylaryl polyglycol ether
To produce a suitable preparation of active compound, 1 part by weight of active compound is mixed with the stated amounts of solvent and emulsifier and the concentrate is diluted with emulsifier-containing water to the desired concentration. For the application with penetrants (rapeseed oil methyl ester 500 EW), ammonium or phosphonium salts or ammonium salts and penetrants (rapeseed oil methyl ester 500 EW), these are in each case added in a concentration of 1000 ppm to the spray liquor.
Paprika plants (Capsicum annuum) which are heavily infested by the green peach aphid (Myzus persicae) are treated by being sprayed to run off point with the preparation of active compound at the desired concentration.
After the desired period of time, the kill in % is determined. 100% means that all animals have been killed; 0% means that none of the animals have been killed.
In this test, for example, the following compounds of the Preparation Examples show good efficacy: see table

Summer wheat = assay: Example C: Herbicidal post-emergence action, use of safeners (crop plant damage); type: in vivo; details: for Summer wheat observed (%), 10 days after application: greenhouse container trial; for Summer wheat observed (%): 10 days after application, no safener;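 on Summer wheat observed (%), 10 days after application: 100% means plants died and 0% means like untreated controls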
Method: (§1) Herbicidal Post-Emergence Action
(§2) Seeds of monocotylos and dicotylos weed and crop plants are placed into sandy lawn in wood fibre pots or in plastic pots, covered with soil and cultivated in a greenhouse, during the vegetation period also outdoors outside of the greenhouse, under good growth conditions. Two to three weeks after sowing, the test plants are treated at the one- to three-leaf stage. The test compounds, formulated as wettable powders (WP) or liquid (EC), are, in the various dosages at a water application rate of 300 l/ha (converted), with wetting agent (0.2 to 0.3%) added, sprayed onto the plants and the surface of the soil. […]
(§3) If it is additionally to be tested as to whether safeners can improve the plant compatibility of test substances in the case of crop plants, the following options are used for applying the safener: • seeds of the crop plants are, before sowing, dressed with safener substance (the amount of safener stated in percent, based on the weight of the seed) • before the application of the test substances, the crop plants are sprayed with the safener at a certain application rate per hectare (usually 1 day before the application of the test substances) • the safener is applied together with the test substance as a tank mix (the amount of safener is stated in g/ha or as a ratio, based on the herbicide).
(§4) By comparing the effect of test substances on crop plants without or with safener treatment, it is possible to assess the effect of the safener substance.
(§5) Container trials in the greenhouse, treatment with safener 1 day prior to herbicide application

Summer barley = assay: as above; type: in vivo; details: no safener
Method: as §1, §2, §3, §4, §5

[2] = Source text: Use was made of leaves which, fully developed, were cut from apple trees of the cultivar golden delicious.
Only the cuticles, free from hairs and stoma, of the upper sides of the leaves were then used. They were washed repeatedly alternating with water and a buffer solution of pH 7. The clean cuticles obtained were then mounted on Teflon plates and smoothed and dried with a gentle stream of air.
In the next step, the cuticle membranes obtained in this manner were placed into stainless steel diffusion cells (=transport chambers) for membrane transport studies. […] The arrangement was chosen such that the morphological outside of the cuticles was facing outwards, i.e. exposed to air, whereas the original inside was facing the interior of the diffusion cells.
The diffusion cells were filled with a 30% strength ethylene glycol/water solution. To determine the penetration, in each case 10 μl of the spray liquor of the composition below were applied to the outside of the cuticles. The spray liquor was prepared using local tap water of medium hardness.
After the spray liquors had been applied, the water was allowed to evaporate and the chambers were inverted and placed into thermostated taps in which temperature and atmospheric humidity over the cuticles could be adjusted using a gentle stream of air onto the cuticles with the spray coating (20° C., 60% rh).

[3] = logP determination by HPLC on a reverse-phase column (C 18), EEC Directive 79/831 Annex V.A8; type: physicochemical; details: HPLC reverse-phase C 18, 43° C., acidic range (pH 2.3), 0.1% aqueous phosphoric acid/acetonitrile; for chromatographic logP: reverse-phase HPLC column (C 18)
Method: The logP values given in the table were determined in accordance with EEC Directive 79/831 Annex V.A8 by HPLC (High Performance Liquid Chromatography) on a reverse-phase column (C 18). Temperature: 43° C.
Mobile phases for the determination in the acidic range (pH 2.3): 0.1% aqueous phosphoric acid, acetonitrile; linear gradient from 10% acetonitrile to 90% acetonitrile.
Calibration was carried out using unbranched alkan-2-ones (having 3 to 16 carbon atoms) with known logP values (determination of the logP values by retention times using linear interpolation between two successive alkanones).

[4] = 10 days after application, 12.5 g of a.i./ha
[5] = 10 days after application, 25 g of a.i./ha
[6] = 10 days after application, 50 g of a.i./ha

COC1CCC2(CC1)NC(=O)C(c1c(C3CC3)cc(C)cc1C1CC1)=C2O (centres unmarked) [Example I-1-a-15]
Kill (%) after 6 d +AS + RME in each case 1000 ppm ([1]; 4 ppm): 95% | Kill (%) after 6 d +AS 1000 ppm ([1]; 4 ppm): 15% | Kill (%) after 6 d +RME 1000 ppm ([1]; 4 ppm): 55% | Kill (%) after 6 d ([1]; 4 ppm): 5% | Kill (%) after 6 d +AS + RME in each case 1000 ppm ([1]; 20 ppm): 98% | Kill (%) after 6 d +AS 1000 ppm ([1]; 20 ppm): 95% | Kill (%) after 6 d +RME 1000 ppm ([1]; 20 ppm): 95% | Kill (%) after 6 d ([1]; 20 ppm): 95%

CCc1cc(C)cc(C2CC2)c1C1=C(O)C2CCCN2C1=O (centres unmarked) [Example I-1-a-18]
Summer wheat observed (%), 10 days after application (Summer wheat; 12.5 g of a.i./ha): 10% | Summer wheat observed (%), 10 days after application (Summer wheat; 25 g of a.i./ha): 15% | Summer wheat observed (%), 10 days after application (Summer wheat; 50 g of a.i./ha): 25% | Summer wheat observed (%), 10 days after application (Summer wheat; 100 g of a.i./ha): 40% | Summer barley observed (%) (Summer barley; [4]): 10% | Summer barley observed (%) (Summer barley; [5]): 15% | Summer barley observed (%) (Summer barley; [6]): 25% | Summer barley observed (%) (Summer barley; 10 days after application, 100 g of a.i./ha): 35% | Summer barley observed (%) (Summer barley; 28 days after application, 50 g of a.i./ha): 10% | Summer barley observed (%) (Summer barley; 28 days after application, 100 g of a.i./ha): 20%

CCc1cc(C2CC2)cc(C2CC2)c1C1=C(O)C(C)(C)NC1=O [Example I-1-a-21]
Penetration after 24 h/% a.i. + AS (1 g/l) [2]: 1.1% | Penetration after 24 h/% a.i. + RME (1 g/l) [2]: 35.6% | Penetration after 24 h/% a.i. + RME (1 g/l) + AS (1 g/l) [2]: 56.9%

CCOC(=O)OC1=C(c2c(C3CC3)cc(C)cc2C2CC2)C(=O)NC1(C)C [Example I-1-c-13]
Summer wheat observed (%) (Summer wheat; 12.5 g of a.i./ha): 20% | Summer wheat observed (%) (Summer wheat; 25 g of a.i./ha): 30% | Summer wheat observed (%) (Summer wheat; 50 g of a.i./ha): 40% | Summer barley observed (%) (Summer barley; [4]): 5% | Summer barley observed (%) (Summer barley; [5]): 20% | Summer barley observed (%) (Summer barley; [6]): 30%

CCc1cc(C)cc(C2CC2)c1C1=C(O)[C@]2(CC[C@H](OC)CC2)OC1=O [Example I-2-a-1]
chromatographic logP [3]: 2.81

CCc1cc(C)cc(C2CC2)c1C1=C(O)[C@]2(CC[C@@H](OC)CC2)OC1=O [Example I-2-a-2]
chromatographic logP [3]: 3.07

Cc1cc(C2CC2)cc(C)c1C1=C(O)C2(CCOCC2)OC1=O [Example I-2-a-5]
logP [3]: 2.36

CCc1cc(C)cc(C2CC2)c1C1=C(OC(=O)C(C)(C)C)[C@]2(CC[C@H](OC)CC2)OC1=O [Example I-2-b-1]
chromatographic logP [3]: 5.03

CCOC(=O)C1(OC(=O)Cc2c(CC)cc(C)cc2C2CC2)CCC(OC)CC1 (centres unmarked) [III-1]
chromatographic logP [3]: 5.15
